Data: paper PMC8931498 (Frontiers in Pharmacology, 2022)
Read-outs that look alike come from different tables or passages of the source.

Columns and labels:
[1] = Plasma pharmacokinetics over 2 h after oral ibogaine in wild-type, Abcg2-/- and Abcb1a/1b;Abcg2-/- mice; format: in vivo; details: for Fold increase AUC0-2h: oral 10 mg/kg ibogaine; for Tmax / Cmax / AUC(0-t): mouse, plasma, po, 10 mg/kg; for AUC(0-t): read-out: AUC0-2h
Protocol: (§1) In each experiment, six to seven mice were used per strain. […] To reduce variation in absorption upon oral administration, mice were fasted for 2–3 h before dosing. […] At either 2 or 8 h after dosing, mice were deeply anesthetized with isoflurane (3%), followed by cardiac puncture to collect blood (at least 600 μL) in Eppendorf tubes using heparin as an anticoagulant. The mice were then sacrificed by cervical dislocation, and tissues including the brain, liver (without gallbladder), kidneys, spleen, small intestine together with the fecal content (SIWC), heart, and subcutaneous inguinal white adipose tissue were collected and weighed. For the 2 h experiment, the gallbladder with content was also (separately) collected in an Eppendorf tube and weighed. Plasma was obtained from blood samples by centrifugation at 9,000 g for 6 min at 4 °C. Tissue homogenates (except gallbladder) were obtained using the Fast Prep-24 5G homogenizer (MP Biomedicals Inc., Santa Ana, CA, United States). Before homogenization, Bovine Serum Albumin (BSA, Fraction V) was dissolved at a concentration of 2% (w/v) in distilled water. Three mL of ice-cold 2% BSA were added to liver and SIWC; 2 ml to kidneys; 1 ml to brain, spleen, and heart; and 2–3 ml to the white adipose tissue (depending on the tissue weight). For the gallbladder, 150 μL of 2% BSA was added; then, the samples were centrifuged (9,000 x g, 4°C, 6 min), and only the supernatant was collected for analysis. Both plasma and tissue samples were kept at −70°C in amber-colored Eppendorf tubes until analysis.
(§2) A volume of 50 µL human plasma sample, a 5-fold diluted mouse plasma sample (10 uL + 40 uL control human plasma), or 100 µL homogenized tissue sample were processed. […] To the 50 uL plasma samples, 20 uL of a working solution containing both internal standards at a concentration of 10 ng/ml in methanol (WIS10) was added. Sample pre-treatment involved protein precipitation with 150 uL of acetonitrile-methanol (1:1, v/v). For the tissue homogenates (100 uL sample aliquots), 40 uL of WIS10 was added, and 300 uL precipitation reagent as sample cleanup. After centrifuging the samples (10 min, 4°C, 15,000 x g), 100 µL of the supernatant was transferred to an amber-colored autosampler vial with insert. Then 100 µL of 4 mM ammonium formate pH 3.5 in water was added, and after vortex mixing, the extracts were injected (5 uL) onto a UPLC system (Acquity UPLC I-Class IVD system, Waters, Milford, MA, United States) equipped with an Acquity UPLC HSS T3 Column (150 × 2.1 mm ID, 1.8 µm). The tray temperature was set to 5 ± 3°C, and the analytical column was kept at 50°C. Gradient elution was applied using 4 mM ammonium formate pH 3.5 in water as eluent A and acetonitrile as eluent B. The flow rate was 500 μL/min, and the total runtime was 6 min. Detection was performed in the positive ion mode on a Quadrupole MS/MS detector with a Turbo Ion Spray Interface (QTRAP5500, Sciex, Framingham, MA, United States). The ionspray voltage was 2250 V, and the spray temperature was 700 °C. Gas settings, potentials, and collision energies were optimized by infusion of the analytes and by flow injection analysis.
(§3) Pharmacokinetic parameters were calculated by non-compartmental methods using the Microsoft Excel menu-driven add-in program PKsolver ([Zhang et al., 2010]). The area under the plasma concentration-time curve (AUC) was calculated with the trapezoidal rule without extrapolating to infinity. The peak plasma concentration (Cmax) and the time to reach Cmax (Tmax) were estimated from the original data. […] GraphPad Prism 9 (GraphPad Software Inc., San Diego, CA, United States) was used to plot the data and to perform statistical analysis. To determine whether the most extreme value in a data set was a significant outlier from the rest, the Grubbs’s (or extreme studentized variate) test was applied (α = 0.05). All data were log-transformed before statistical analysis. […]

[2] = Plasma pharmacokinetics over 2 h after oral ibogaine in wild-type, Oatp1a/1b-/-, Oatp1a/1b-/-;1B1tg and Oatp1a/1b-/-;1B3tg mice; format: in vivo; details: for Fold increase AUC0-2h: oral 10 mg/kg ibogaine; for Cmax / Tmax / AUC(0-t): female, mouse, plasma, po, 10 mg/kg; for AUC(0-t): read-out: AUC0-2h
Protocol: as §1, §2, §3

[3] = Plasma pharmacokinetics over 8 h after oral ibogaine in wild-type, Cyp3a-/- and Cyp3aXAV mice; format: in vivo; details: female, mouse, 10 mg/kg; for AUC(0-t): read-out: AUC0-8h
Protocol: as §1, §2, §3

[4] = Tissue distribution 2 h after oral ibogaine in wild-type, Abcg2-/- and Abcb1a/1b;Abcg2-/- mice; format: in vivo; details: for fold decrease in total amount (% of dose) in SIWC corrected for plasma AUC over 2 h: small intestine with fecal content, oral 10 mg/kg ibogaine; for Kp at 2 h: mouse, po, 10 mg/kg
Protocol: as §1, §2, §3

[5] = Tissue accumulation 2 h after oral ibogaine in wild-type and Oatp1a/1b-deficient mouse strains; format: in vivo, mice; details: for fold reduction in liver accumulation: tissue concentration relative to plasma AUC0-2h, oral 10 mg/kg ibogaine
Protocol: as §1
A volume of 50 µL human plasma sample, a 5-fold diluted mouse plasma sample (10 uL + 40 uL control human plasma), or 100 µL homogenized tissue sample were processed. […] To the 50 uL plasma samples, 20 uL of a working solution containing both internal standards at a concentration of 10 ng/ml in methanol (WIS10) was added. Sample pre-treatment involved protein precipitation with 150 uL of acetonitrile-methanol (1:1, v/v). For the tissue homogenates (100 uL sample aliquots), 40 uL of WIS10 was added, and 300 uL precipitation reagent as sample cleanup. After centrifuging the samples (10 min, 4°C, 15,000 x g), 100 µL of the supernatant was transferred to an amber-colored autosampler vial with insert. […]
Pharmacokinetic parameters were calculated by non-compartmental methods using the Microsoft Excel menu-driven add-in program PKsolver ([Zhang et al., 2010]). The area under the plasma concentration-time curve (AUC) was calculated with the trapezoidal rule without extrapolating to infinity. […]

[6] = set-up: method as in Luz and Mash, 2021; details: ref Luz and Mash, 2021; cited from earlier work
[7] = set-up: method as in Mačiulaitis et al., 2008; details: in 24 h in rats; ref Mačiulaitis et al., 2008; cited from earlier work
[8] = system: human ABCB1; set-up: method as in Tournier et al. (2010); details: hABCB1-transfected HEK293 cells, flow cytometric assay; ref Tournier et al. (2010); cited from earlier work
[9] = system: human ABCG2; set-up: method as in Tournier et al. (2010); details: hABCG2-transfected HEK293 cells, flow cytometric assay; ref Tournier et al. (2010); cited from earlier work
[10] = Abcb1a/1b;Abcg2-/- mice vs wild-type
[11] = Oatp1a/1b-/-;1B1tg mice vs wild-type
[12] = Oatp1a/1b-/-;1B3tg mice vs wild-type
[13] = wild-type, inguinal white adipose tissue, read-out: adipose tissue-to-plasma distribution ratio

CCC1CC2CC3c4[nH]c5ccc(OC6OC(C(=O)O)C(O)C(O)C6O)cc5c4CCN(C2)C13 (centres unmarked) [Noribogaine glucuronide, noribogaine glucuronide]
Fold increase AUC0-2h [1, 10]: 1.5
Tmax ([1]; Abcb1a/1b;Abcg2-/-): 2 h
Fold increase AUC0-2h ([1]; Abcg2-/- mice vs wild-type): 1.1
Tmax ([1]; Abcg2-/-): 2 h
Cmax ([1]; female, Abcb1a/1b;Abcg2-/-): 156 ± 31 ng/mL
AUC(0-t) ([1]; female, Abcb1a/1b;Abcg2-/-): 240 ± 46 ng·h/mL
Cmax ([1]; female, Abcg2-/-): 122 ± 27 ng/mL
AUC(0-t) ([1]; female, Abcg2-/-): 184 ± 32 ng·h/mL
Cmax ([1]; female, wild-type): 125 ± 30 ng/mL
Tmax ([1]; female, wild-type): 2 h
AUC(0-t) ([1]; female, wild-type): 164 ± 12 ng·h/mL
Fold increase AUC0-2h ([1]; wild-type mice (reference)): 1.0
Fold increase AUC0-2h ([2]; Oatp1a/1b-/- mice vs wild-type): 1.5
Fold increase AUC0-2h [2, 11]: 1.8
Fold increase AUC0-2h [2, 12]: 1.4
Cmax ([2]; Oatp1a/1b-/-): 155 ± 20 ng/mL
Tmax ([2]; Oatp1a/1b-/-): 2 h
AUC(0-t) ([2]; Oatp1a/1b-/-): 244 ± 30 ng·h/mL
Cmax ([2]; Oatp1a/1b-/-;1B1tg): 199 ± 59 ng/mL
Tmax ([2]; Oatp1a/1b-/-;1B1tg): 1 h
AUC(0-t) ([2]; Oatp1a/1b-/-;1B1tg): 294 ± 65 ng·h/mL
Cmax ([2]; Oatp1a/1b-/-;1B3tg): 162 ± 25 ng/mL
Tmax ([2]; Oatp1a/1b-/-;1B3tg): 1 h
AUC(0-t) ([2]; Oatp1a/1b-/-;1B3tg): 236 ± 24 ng·h/mL
Cmax ([2]; wild-type): 125 ± 30 ng/mL
Tmax ([2]; wild-type): 2 h
AUC(0-t) ([2]; wild-type): 164 ± 12 ng·h/mL
Fold increase AUC0-2h ([2]; wild-type mice (reference)): 1.0
Cmax ([3]; Cyp3a-/-): 114 ± 24 ng/mL
Tmax ([3]; Cyp3a-/-): 1 h
AUC(0-t) ([3]; Cyp3a-/-): 422 ± 110 ng·h/mL
Cmax ([3]; Cyp3aXAV): 123 ± 28 ng/mL
Tmax ([3]; Cyp3aXAV): 1 h
AUC(0-t) ([3]; Cyp3aXAV): 536 ± 117 ng·h/mL
Cmax ([3]; wild-type): 70 ± 13.6 ng/mL
Tmax ([3]; wild-type): 1 h
AUC(0-t) ([3]; wild-type): 219 ± 50 ng·h/mL
fold decrease in liver-to-plasma ratio ([4]; Abcb1a/1b;Abcg2-/- mice compared to WT, 2 h after oral 10 mg/kg ibogaine): 1.7 fold
fold decrease in total amount (% of dose) in SIWC corrected for plasma AUC over 2 h ([4]; Abcb1a/1b;Abcg2-/- mice compared to WT): 2.1 fold
gallbladder-to-plasma ratio, fold lower than in WT ([4]; Abcb1a/1b;Abcg2-/- vs WT mice, not statistically significant, 2 h after oral 10 mg/kg ibogaine): more than 2 fold
fold decrease in total amount (% of dose) in SIWC corrected for plasma AUC over 2 h ([4]; Abcg2-/- mice compared to WT): 1.5 fold
Kp at 2 h [4, 13]: 0.058
gallbladder-to-plasma ratio, fold higher than liver-to-plasma ratio ([5]; WT mice, 2 h after oral 10 mg/kg ibogaine): about 10 fold

CCC1CC2CC3c4[nH]c5ccc(O)cc5c4CCN(C2)C13 (centres unmarked) [Noribogaine, 12-hydroxyibogamine]
Fold increase AUC0-2h [1, 10]: 1.2
Tmax ([1]; Abcb1a/1b;Abcg2-/-): 0.25 h
Fold increase AUC0-2h ([1]; Abcg2-/- mice vs wild-type): 1.1
Tmax ([1]; Abcg2-/-): 0.25 h
Cmax ([1]; female, Abcb1a/1b;Abcg2-/-): 276 ± 98 ng/mL
AUC(0-t) ([1]; female, Abcb1a/1b;Abcg2-/-): 419 ± 126 ng·h/mL
Cmax ([1]; female, Abcg2-/-): 233 ± 61 ng/mL
AUC(0-t) ([1]; female, Abcg2-/-): 381 ± 108 ng·h/mL
Cmax ([1]; female, wild-type): 208 ± 70 ng/mL
Tmax ([1]; female, wild-type): 0.5 h
AUC(0-t) ([1]; female, wild-type): 339 ± 107 ng·h/mL
Fold increase AUC0-2h ([1]; wild-type mice (reference)): 1.0
Fold increase AUC0-2h ([2]; Oatp1a/1b-/- mice vs wild-type): 1.4
Fold increase AUC0-2h [2, 11]: 1.7
Fold increase AUC0-2h [2, 12]: 1.5
Cmax ([2]; Oatp1a/1b-/-): 290 ± 73 ng/mL
Tmax ([2]; Oatp1a/1b-/-): 0.5 h
AUC(0-t) ([2]; Oatp1a/1b-/-): 458 ± 110 ng·h/mL
Cmax ([2]; Oatp1a/1b-/-;1B1tg): 417 ± 95 ng/mL
Tmax ([2]; Oatp1a/1b-/-;1B1tg): 0.25 h
AUC(0-t) ([2]; Oatp1a/1b-/-;1B1tg): 578 ± 86 ng·h/mL
Cmax ([2]; Oatp1a/1b-/-;1B3tg): 411 ± 107 ng/mL
Tmax ([2]; Oatp1a/1b-/-;1B3tg): 0.25 h
AUC(0-t) ([2]; Oatp1a/1b-/-;1B3tg): 519 ± 100 ng·h/mL
Cmax ([2]; wild-type): 209 ± 70 ng/mL
Tmax ([2]; wild-type): 0.5 h
AUC(0-t) ([2]; wild-type): 339 ± 107 ng·h/mL
Fold increase AUC0-2h ([2]; wild-type mice (reference)): 1.0
Cmax ([3]; Cyp3a-/-): 280 ± 75 ng/mL
Tmax ([3]; Cyp3a-/-): 0.5 h
AUC(0-t) ([3]; Cyp3a-/-): 1070 ± 320 ng·h/mL
Cmax ([3]; Cyp3aXAV): 328 ± 75 ng/mL
Tmax ([3]; Cyp3aXAV): 0.5 h
AUC(0-t) ([3]; Cyp3aXAV): 1400 ± 320 ng·h/mL
Cmax ([3]; wild-type): 217 ± 37 ng/mL
Tmax ([3]; wild-type): 0.5 h
AUC(0-t) ([3]; wild-type): 655 ± 220 ng·h/mL
Kp at 2 h ([4]; Abcb1a/1b;Abcg2-/-, brain, read-out: brain-to-plasma ratio): 8.3
liver-to-plasma ratios, times higher than gallbladder-to-plasma ratios ([4]; WT, Abcg2-/- and Abcb1a/1b;Abcg2-/- mice, 2 h after oral 10 mg/kg ibogaine): at least 3 times
absolute brain concentrations, fold higher than those of ibogaine ([4]; wild-type mice, both at 2 and 8 h after oral 10 mg/kg ibogaine): ≥ 100 fold
Kp at 2 h ([4]; wild-type, brain, read-out: brain-to-plasma ratio): 7.2
Kp at 2 h [4, 13]: 2.8
fold reduction in liver accumulation ([5]; Oatp1a/1b-/- mice compared to WT): 1.6 fold
fold reduction in liver accumulation ([5]; Oatp1a/1b-/-;1B1tg mice compared to WT): 1.8 fold
fold reduction in liver accumulation ([5]; Oatp1a/1b-/-;1B3tg mice compared to WT): 2.1 fold
half-life in plasma [6]: 24 to 30 h
excreted via urine and feces, % of the administered dose [7]: 60–70%

ibogaine
inhibition of human ABCB1 [8]: significantly inhibited in a concentration-dependent manner
inhibition of human ABCG2 [9]: significantly inhibited in a concentration-dependent manner
